“Also recorded” adds a separate entry of the source.
Legend:
[1] = test system: C57BL/6 WT mice treated with tunicamycin; test: Tunicamycin-induced hepatic and renal damage in WT mice in the presence and absence of PPG; format: in vivo, mouse
From the text: In order to investigate the effects of elevated cystathionine upon the response to ER stress, wild type mice (n=6) were exposed to a single sub-lethal intraperitoneal injection of tunicamycin in the presence and absence of the CGL inactivating compound PPG. WT mice were randomly assigned to one of four treatment groups (n=6 for each group): 1) control, IP injected with PBS; 2) I.P. injection with PPG; 3) single I.P […] tunicamycin and 4) tunicamycin+PPG. In groups 2 and 4, PPG treatment was maintained by daily injection until sacrifice at three days post vehicle/tunicamycin injection. After the completion of this treatment regime, all mice were anaesthetized (isoflourane/oxygen) and sacrificed by decapitation, and blood samples were collected for plasma analysis. Livers and kidneys were removed, weighed and then samples were either immersion-fixed overnight in 4% paraformaldehyde in PBS (pH 7.3) for subsequent histological analysis or were snap frozen in liquid nitrogen and examined for morphological, histological and biochemical analyses.
Propensity for hepatic steatosis was examined in HO and wild type control mice using a methionine-choline deficient amino acid defined and iron supplemented diet (#518810 Dyets Inc., Bethlehem, Pa.)) and an isocaloric amino acid defined Lombardi choline sufficient diet with methionine control diet (518754, Dyets Inc., Bethlehem, Pa.) for 19 days as described previously (7). Experimental hypercystathionemia was induced by IP injection of the CGL inactivator PPG (50 mg·day-1·kg-1) as described previously (8). ER stress was induced in mice by a single IP injection with tunicamycin at 0.5 mg/kg body weight (volume <=1.0 ml). Control mice were sham treated by injection with an equal volume of PBS (9,10).
Tissues were immersion-fixed overnight in 4% paraformaldehyde in PBS (pH 7.3). Paraffin embedded sections (5 μm) were stained for examination with hematoxylin and eosin (H and E). Cells undergoing apoptosis were identified by labeling their DNA 3′-OH nick ends using a variant of terminal deoxynucleotidyl transferase-mediated dUTP nick end-labeling (TUNEL) staining. Staining was performed according to the manufacturer's instruction with ApopTag® Peroxidase in Situ Apoptosis Detection Kit (Millipore, Billerica, Mass.). Tissue sections were deparaffinized with xylene and washed in succession with different concentrations of ethanol (absolute, 95% and 70%). Tissue sections were then digested with proteinase K (20 μg/ml) for 15 min. Endogenous peroxidase activity was quenched with 3% H2O2 in PBS for 5 min. The slides were immersed in terminal deoxynucleotidyl transferase (TdT) buffer containing digoxigenin-labeled nucleotides at 37° C. for 1 h. After washing, anti-digoxigenin-peroxidase was added to cover the slides and incubated in a humid chamber at room temperature for 30 min. After washing with PBS, the slides were stained with diaminobenzidine and then counterstained with 1% methyl green. Light microscopy was performed to quantify the apoptotic cells, by counting cells in ten randomly selected fields (×100 magnification) of each slide with the following formula: number of apoptotic cells/total number of cells counted×100.
A party unaware of the animal's genotype or treatment group performed both histological analysis, of stained slides and TUNEL staining. Liver injury was assessed by determining plasma levels of alanine aminotransferase (ALT) activity using an enzyme-coupled assay with lactic dehydrogenase (LDH) as described previously (12) Liver lipid was extracted using the procedure of Bligh and Dyer (13) and after evaporation of the organic solvent, the triacylglycerol content of each sample was measured in duplicate using an enzymatic method (Sigma-Aldrich).

hepatic CGL = settings: I.P. injection; cited from earlier work
[2] = tunicamycin 0.5 mg/kg single IP + daily PPG, three days

In the case of C#CCC(N)C(=O)O (racemic) [PPG, D,L-2-amino-4-pentynoic acid], the “apoptosis (Tunel staining)” value ([1]; PPG alone control group) is reported as “No apoptosis was observed”, the “morphological alteration (histology)” value ([1]; PPG alone control group) is reported as “no significant morphological alteration” and the “size and appearance of livers and kidneys” value ([1]; PPG alone control group) is reported as “normal in size and appearance”. The “liver weight vs control groups” value [1, 2] was “did not differ significantly from the control groups”, the “plasma ALT levels vs control groups” value [1, 2] was “did not differ significantly from the control groups” and the “triglyceride levels vs control groups” value [1, 2] was “did not differ significantly from the control groups”. For the same compound, the “gross appearance of livers and kidneys” value ([1]; tunicamycin + PPG, three days) was “appeared ostensibly normal; also recorded: this effect was not apparent”, the “tunicamycin-induced morphological changes in liver and kidney (H and E histology)” value ([1]; tunicamycin + PPG, three days) was “effectively ablated; also recorded: significantly attenuated” and the “apoptotic cells in kidney (Tunel staining)” value ([1]; tunicamycin treated mice pretreated with PPG) was “No apoptotic cells were observed”. For the same compound, the “duration of cystathionine accumulation” value (hepatic CGL) was “approximately one day”, the “inactivation of hepatic CGL activity” value (hepatic CGL) was “rapidly inactivate” and the “time to accumulation of cystathionine” value (hepatic CGL) was “within one hour”.

Source: patent publication US20200352889A1, “CYSTATHIONINE COMPOSITIONS AND METHODS OF TREATMENT FOR HEALTH CONDITIONS” (THE REGENTS OF THE UNIVERSITY OF COLORADO, A BODY CORPORATE, priority 2011, published 2020)
